The values below come from US4713381A, “Oxodiazine compounds and pharmaceutical compositions thereof” (Yoshitomi Pharmaceutical Industries, Ltd., priority 1985, dated 1987).

Values after ≈ are worked out from the molar mass of the structure shown. Where two headings read alike, the source gives them in different places.

Assay [1] has as its system platelet aggregation. Put plainly: Effects on platelet aggregation in vitro (ADP-induced, rat platelet-rich plasma, Born type aggregometer). Format: cell-based, rats. The settings on record: 2 min, read-out: 50% inhibitory concentrations (IC50). Here is the method:
1. Effects on platelet aggregation in vitro
Samples of blood are collected from rats weighing 400-450 g and mixed with a 1/10 volume of 3.8% sodium citrate solution. The citrated blood is centrifugated at 200×g for 10 minutes to yield platelet-rich plasma. Test compound is added to platelet-rich plasma thus obtained and maintained at 37° C. for 2 minutes. The platelet aggregation is induced by the addition of 10^-5 M adenosine diphosphate (final concentration) and measured with a Born type six channel aggregometer (Journal of Physiology, vol. 168, pp. 175-198, 1963.
50% inhibitory concentrations (IC50, μg/ml) as compared the control group are calculated. Aspirin and ticlopidine are employed as compounds for comparison.

Assay [2] concerns platelet aggregation. Kind of assay: Effects on platelet aggregation ex vivo (ADP-induced, rat platelet-rich plasma 2 hours after oral administration). The class given is in vivo. The settings on record: p.o., rats, after 2 hours, 10^-5 M adenosine diphosphate. Here is the method: 2. Effects on platelet aggregation ex vivo
Test compound is orally administered to rats weighing 400-450 g. After 2 hours, samples of blood are collected from the rats and mixed with a 1/10 volume of 3.8% sodium citrate solution. The citrated blood is centrifugated at 200×g for 10 minutes to yield platelet-rich plasma. The platelet aggregation is induced by the addition of 10^-5 M adenosine diphosphate (final concentration) and measured with the same aggregometer as described in the above Method.
Percentage of inhibition as compared with the control group administered with the solvent are calculated.

Where [3] appears, read: rat platelet-rich plasma, 37° C., 2 minutes, 10^-5 M adenosine diphosphate.

By inhibition is commonly meant the percentage by which the read-out fell short of the control. Read a low inhibition as little suppression.

Take `CC(=O)Oc1ccccc1C(=O)O` [Aspirin, reference compound]: the IC50 with platelet aggregation [1] (Rattus norvegicus, Platelet) was over 300 µg/mL. For the compound `Cc1nc2ccccn2c1C1=NNC(=O)CO1` [Example 1, 2-(2-methylimidazo[1,2-a]pyridin-3-yl)-4,6-dihydro-1,3,4-oxadiazin-5-one], in the assay with platelet aggregation [1] (setting [3]), the IC50 was determined as 1 µg/mL (≈ 4.34 µM). For the same compound, in the assay with platelet aggregation [2], 10 mg/kg produced 75% inhibition. As for `Cc1nc2c(C)cccn2c1C1=NNC(=O)CO1` [Example 2, 2-(2,8-dimethylimidazo[1,2-a]pyridin-3-yl)-4,6-dihydro-1,3,4-oxadiazin-5-one], in the assay with platelet aggregation [1] (setting [3]), the IC50 amounted to 1.9 µg/mL (≈ 7.78 µM). On to `Cc1ccc2nc(C)c(C3=NNC(=O)CO3)n2c1` [Example 3, 2-(2,6-dimethylimidazo[1,2-a]pyridin-3-yl)-4,6-dihydro-1,3,4-oxadiazin-5-one], for which the IC50 in the assay on platelet aggregation [1] (setting [3]) is 3 µg/mL (≈ 12.3 µM).

On to `Cc1nc2sccn2c1C1=NNC(=O)CO1` [Example 5, 2-(6-methylimidazo[2,1-b]thiazol-5-yl)-4,6-dihydro-1,3,4-oxadiazin-5-one], for which the IC50 in the assay with platelet aggregation [1] (setting [3]) stood at 0.5 µg/mL (≈ 2.12 µM). This compound returned an inhibition at 10 mg/kg in the assay with platelet aggregation [2] of 54%.

`O=C1COC(c2csc3nccn23)=NN1` [Example 16, 2-(Imidazo[2,1-b]thiazol-3-yl)-4,6-dihydro-1,3,4-oxadiazin-5-one] returned an inhibition at 10 mg/kg in the assay with platelet aggregation [2] of 60%. With `Cc1c(C2=NNC(=O)CO2)sc2nccn12` [Example 17, 2-(3-Methylimidazo[2,1-b]thiazol-2-yl)-4,6-dihydro-1,3,4-oxadiazin-5-one], in the assay on platelet aggregation [1] (setting [3]), the IC50 came to 0.6 µg/mL (≈ 2.54 µM). Further, the inhibition at 10 mg/kg in the assay on platelet aggregation [2] stood at 54%.

As for `O=C1COC(c2ccc3nccn3c2)=NN1` [Example 18, 2-(Imidazo[1,2-a]pyridin-6-yl)-4,6-dihydro-1,3,4-oxadiazin-5-one], the IC50 with platelet aggregation [1] (setting [3]) worked out at 0.4 µg/mL (≈ 1.85 µM). In the assay on platelet aggregation [2], this compound registered an inhibition at 10 mg/kg of 65%. For the compound `Cl.O=C1COC(c2cccn3ccnc23)=NN1` [Example 19, 2-(Imidazo[1,2-a]pyridin-8-yl)-4,6-dihydro-1,3,4-oxadiazin-5-one hydrochloride], the IC50 with platelet aggregation [1] (Rattus norvegicus, Platelet) worked out at 1 µg/mL. For the compound `Clc1ccccc1CN1CCc2sccc2C1` [Ticlopidine, ticlopidine, reference compound], the IC50 in the assay on platelet aggregation [1] (setting [3]) was over 300 µg/mL.
